Converted amounts (≈) assume the structure as drawn. The source made the active and inactive calls. The rule behind the calls is not given here.

In test [1] the test system is L1210. In words: In vivo antitumor activity against mouse L1210 cells allografted in BDF1 mouse at 400 mg/kg, ip administered as three doses as suspension in klucel. In kind it is functional, organism-based. More on the design: dose 400 mg/kg.
A further test deals with KB. The test can be described thus: In vitro antitumor activity against human KB cells treated as an alcoholic solution. To be noted: read-out: ED50 (the source's name). It counts as functional.
The test system of test [2] is P388. The test can be described thus: In vivo antitumor activity against mouse P388 cells allografted in BDF1 mouse at 400 mg/kg, ip administered as three doses as suspension in klucel. In kind it is functional, organism-based. More on the design: dose 400 mg/kg.
In test [3] the test system is L1210. The test can be described thus: In vivo antitumor activity against mouse L1210 cells allografted in BDF1 mouse at 400 mg/kg, ip administered as single dose as suspension in saline. It counts as functional, organism-based. More on the design: dose 400 mg/kg.
The subject of test [4] is L1210. The test can be described thus: In vivo antitumor activity against mouse L1210 cells allografted in BDF1 mouse at 400 mg/kg, ip administered as nine doses as suspension in klucel. In kind it is functional, organism-based. More on the design: dose 400 mg/kg.
The test system of test [5] is P388. In words: In vivo antitumor activity against mouse P388 cells allografted in CDF1 mouse at 200 mg/kg, ip administered as nine doses as suspension in klucel. It counts as functional, organism-based. More on the design: dose 200 mg/kg.
The test system of test [6] is L1210. The test can be described thus: In vivo antitumor activity against mouse L1210 cells allografted in BDF1 mouse at 200 mg/kg, ip administered as nine doses as suspension in saline with Tween 80. In kind it is functional, organism-based. More on the design: dose 200 mg/kg.
The subject of test [7] is L1210. In words: In vivo antitumor activity against mouse L1210 cells allografted in BDF1 mouse at 400 mg/kg, ip administered as single dose as suspension in CMC. It counts as functional, organism-based. More on the design: dose 400 mg/kg.

Regarding `CCCCCCCCCCCS(=O)(=O)C(CCOS(C)(=O)=O)COS(C)(=O)=O` (racemic), the result with L1210 [1] and in the test on P388 [2] was inactive. Also, in the test on KB, the EC50 amounted to 31 µg/mL (≈ 66.7 µM).

Consider `CCCCS(=O)(=O)C(CCOS(C)(=O)=O)COS(C)(=O)=O` (racemic), for which the outcome with L1210 [3] was inactive.

Turning to `COc1ccc(OCCS(=O)(=O)C(CCOS(C)(=O)=O)COS(C)(=O)=O)cc1` (racemic), the outcome with L1210 [4] was inactive.

Regarding `COc1ccccc1C(=O)Nc1cc2c(cc1N1CCNCC1C)n(C)c(=O)n2C` (racemic), the result in the test with P388 [5] was inactive.

With `CS(=O)(=O)OCCC(COS(C)(=O)=O)S(=O)(=O)CCCOc1ccccc1-c1ccccc1` (racemic), the outcome in the test on L1210 [6] was inactive.

On to `CS(=O)(=O)OCCC(COS(C)(=O)=O)S(=O)(=O)Cc1ccccc1` (racemic), for which the outcome in the test with L1210 [3] was inactive.

Turning to `CS(=O)(=O)OCCC(COS(C)(=O)=O)S(=O)(=O)c1ccccc1` (racemic), the outcome in the test with L1210 [7] was inactive.

These data come from ChEMBL document CHEMBL3244182, “Potential bis-alkylating agents for cancer chemotherapy. Approaches to the synthesis of 2-sulfonyl-1,4-bis(methanesulfonoxy)butanes” (1978).
